From patent publication US11384113B2, “Cobalamin derivatives and their use for the treatment of diseases caused by lack of vitamin B12 supply” (Albert-Ludwigs-Universitaet Freiburg, priority 2017, dated 2022)
Positions count from the first letter of the chain named. Where two headings read alike, the source gives them in different places.

What was measured:
[1] = target: T1, human recombinant CblC wild type (Homo sapiens, UniProt Q9Y4U1); assay type: biochemical; conditions: for Product under ambient conditions, Wild type CblC: dealkylation, 5 mM GSH; for Half-life of beta-axial ligand removal, Wild type CblC: human, pH 7.6
T1 sequence (Q9Y4U1 1-282): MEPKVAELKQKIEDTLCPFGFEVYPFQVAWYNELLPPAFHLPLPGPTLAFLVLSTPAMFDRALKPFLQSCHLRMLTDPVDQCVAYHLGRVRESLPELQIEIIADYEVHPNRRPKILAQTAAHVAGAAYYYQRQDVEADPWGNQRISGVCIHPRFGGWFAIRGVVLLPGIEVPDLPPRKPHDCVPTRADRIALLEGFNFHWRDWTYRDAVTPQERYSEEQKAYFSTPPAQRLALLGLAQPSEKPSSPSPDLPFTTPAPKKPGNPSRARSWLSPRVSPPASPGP
Experimental: (§1) The ability of the newly synthesized Cbl derivatives to serve as substrates for CblC was examined (FIG. 12). CblC activity was measured by UV-visible spectroscopy according to published procedures. Analysis of reaction products was performed by mass spectrometry. We measured dealkylation and de-thiolation of Co—C and Co—S bonded Cbl derivatives, respectively, by wild type and mutant CblC proteins to determine whether these reactions could be supported in patients harboring an abnormal isoform of CblC with low or no enzymatic activity.
The enzymatic activity of CblC in the presence of CyaCbl and MPGCbl as substrates was evaluated under the same experimental conditions utilized to examine dealkylation of MeCbl and AdoCbl. […] The reaction was complete in less than 10 seconds, which is the time it takes to record the first spectrum after mixing of CblC-bound to CyaCbl or MPGCbl with 5 mM GSH (FIG. 12).
(§2) First, the ability of novel cobalamins described herein was tested to act as substrate for wild type CblC and to restore the lost activity of pathogenic variants, such as mutant Arg161Gly, that leads to early-onset form of the cblC disease.

[2] = target: T2, human recombinant CblC pathogenic mutant Arg161Gly (Homo sapiens, UniProt Q9Y4U1, R161G); assay type: biochemical; conditions: for Product under ambient conditions, Mutant Arg161Gly: dealkylation, 5 mM GSH; for Half-life of beta-axial ligand removal, Mutant Arg161Gly: human, pH 7.6
T2 sequence (Q9Y4U1 1-282 R161G): T1 sequence (Q9Y4U1 1-282) with R161G
Experimental: as §1, §2

[3] = base-on to base-off equilibrium; cited from earlier work
[4] = cited from earlier work
[5] = test system: fibroblasts from healthy subjects; assay: MMA in conditioned medium of control fibroblasts; assay type: cell-based, human
Source text: (§3) Cultured cells from control (healthy neonatal subjects) or cblC fibroblasts were supplemented without exogenous Cbl (negative control), with commercial CNCbl (current therapy control) or with the newly synthesized cobalamins (test group). The ability of these compounds to support intracellular Cbl metabolism in the absence of CblC was examined by monitoring disease biomarker metabolites Hcy and MMA levels in the conditioned medium.
(§4) The cellular response to treatment with new derivatives CyaCbl and MPGCbl in comparison with current therapeutic form CNCbl was measured. The ability of the new cobalamin derivatives CyaCbl and MPGCbl to achieve metabolic control, i.e. reduction of for example MMA production by cblC fibroblasts in culture, was examined as described in previously published experimental protocols. FIG. 13 provides a comparison of the effect of CNCbl (0.001 mM) versus the same dose of CyaCbl or MPGCbl given to cultured fibroblasts from healthy subjects (HFF, NHDF, PCS, Wiesel, Control) or from cblC patients (WG1801, WG2176, WG3354, GM10011, GM02345B, GM02452C).
(§5) Additional examination of the effect of thiolatocobalamins CyaCbl and MPGCbl and sulfur-containing alkylcobalamin Me-S-MeCbl with respect to structural analogues that are NOT available for therapy was also carried out, for comparative purposes. The results of cellular response (healthy controls and cblC patient fibroblasts) to cobalamin treatment, as reflected by MMA levels is provided in Table 6.

[6] = test system: fibroblasts isolated from patients with cblC disease; assay: MMA in conditioned medium of cblC patient fibroblasts; assay type: cell-based, human
Source text: as §3, §4, §5

Compound	Product under ambient conditions, Wild type CblC [1]	Half-life of beta-axial ligand removal, Wild type CblC [1]	Product under ambient conditions, Mutant Arg161Gly [2]	Half-life of beta-axial ligand removal, Mutant Arg161Gly [2]	pKa of base on/base off [3]	further results
CC1=C2N=C(C=C3N=C(C(C)=C4[N-]C(C(CC(N)=O)C4(C)CCC(=O)NCC(C)OP(=O)([O-])OC4C(CO)OC(n5cnc6cc(C)c(C)cc65)C4O)C4(C)N=C1C(CCC(N)=O)C4(C)CC(N)=O)C(CCC(N)=O)C3(C)C)C(CCC(N)=O)C2(C)CC(N)=O.CC[CH2][Co+2] (stereo not shown) [PrCbl, propylcobalamin, reference compound]	H2OCbl	318 min	No reaction	0 min	–	–
CC1=C2N=C(C=C3N=C(C(C)=C4[N-]C(C(CC(N)=O)C4(C)CCC(=O)NCC(C)OP(=O)([O-])OC4C(CO)OC(n5cnc6cc(C)c(C)cc65)C4O)C4(C)N=C1C(CCC(N)=O)C4(C)CC(N)=O)C(CCC(N)=O)C3(C)C)C(CCC(N)=O)C2(C)CC(N)=O.O=[N+]([O-])[Co+2] (stereo not shown) [NO2]	–	–	–	–	−0.15	–
C/C1=C2/[N-][C@H]([C@H](CC(N)=O)[C@@]2(C)CCC(=O)NC[C@@H](C)OP(=O)([O-])O[C@H]2[C@@H](O)[C@@H](n3cnc4cc(C)c(C)cc43)O[C@@H]2CO)[C@]2(C)N=C(/C(C)=C3N=C(/C=C4N=C1[C@@H](CCC(N)=O)C\4(C)C)[C@@H](CCC(N)=O)[C@]\3(C)CC(N)=O)[C@@H](CCC(N)=O)[C@]2(C)CC(N)=O.[Co].[OH3+] [H2O, Aquacobalamin]	–	–	–	–	−2.40	Redox potential [V] relative to NHE ([4]; 22° C.): 0.20 V
CC1=C2N=C(C=C3N=C(C(C)=C4[N-]C(C(CC(N)=O)C4(C)CCC(=O)NCC(C)OP(=O)([O-])OC4C(CO)OC(n5cnc6cc(C)c(C)cc65)C4O)C4(C)N=C1C(CCC(N)=O)C4(C)CC(N)=O)C(CCC(N)=O)C3(C)C)C(CCC(N)=O)C2(C)CC(N)=O.CSC[CH2][Co+2] (stereo not shown) [Me—S—EtCbl]	H2OCbl/Cob(II)alamin	7.5 min	Cob(II)alamin	11.5 min	–	–
CC1=C2N=C(C=C3N=C(C(C)=C4[N-]C(C(CC(N)=O)C4(C)CCC(=O)NCC(C)OP(=O)([O-])OC4C(CO)OC(n5cnc6cc(C)c(C)cc65)C4O)C4(C)N=C1C(CCC(N)=O)C4(C)CC(N)=O)C(CCC(N)=O)C3(C)C)C(CCC(N)=O)C2(C)CC(N)=O.CCC[CH2][Co+2] (stereo not shown) [BuCbl, butylcobalamin, reference compound]	H2OCbl	1155 min	No reaction	0 min	–	–
C/C1=C2/[N-][C@H]([C@H](CC(N)=O)[C@@]2(C)CCC(=O)NC[C@@H](C)OP(=O)([O-])O[C@H]2[C@@H](O)[C@@H](n3cnc4cc(C)c(C)cc43)O[C@@H]2CO)[C@]2(C)N=C(/C(C)=C3N=C(/C=C4N=C1[C@@H](CCC(N)=O)C\4(C)C)[C@@H](CCC(N)=O)[C@]\3(C)CC(N)=O)[C@@H](CCC(N)=O)[C@]2(C)CC(N)=O.[CH2-][C@H]1O[C@@H](n2cnc3c(N)ncnc32)[C@H](O)[C@@H]1O.[Co] [AdoCbl, Adenosylcobalamin]	–	–	–	–	3.50	Redox potential [V] relative to NHE ([4]; electrochemical, DMF/methanol): −1.04 V
cyanocobalamin [CNCbl]	–	–	–	–	0.10	Redox potential [V] relative to NHE ([4]; electrochemical, DMSO/propanol): −0.76 V
CC1=C2N=C(C=C3N=C(C(C)=C4[N-]C(C(CC(N)=O)C4(C)CCC(=O)NCC(C)OP(=O)([O-])OC4C(CO)OC(n5cnc6cc(C)c(C)cc65)C4O)C4(C)N=C1C(CCC(N)=O)C4(C)CC(N)=O)C(CCC(N)=O)C3(C)C)C(CCC(N)=O)C2(C)CC(N)=O.N#C[S][Co+2] (stereo not shown) [SCN^−]	–	–	–	–	3.40	–
CC1=C2N=C(C=C3N=C(C(C)=C4[N-]C(C(CC(N)=O)C4(C)CCC(=O)NCC(C)OP(=O)([O-])OC4C(CO)OC(n5cnc6cc(C)c(C)cc65)C4O)C4(C)N=C1C(CCC(N)=O)C4(C)CC(N)=O)C(CCC(N)=O)C3(C)C)C(CCC(N)=O)C2(C)CC(N)=O.CS[CH2][Co+2] (stereo not shown) [Me—S—MeCbl]	H2OCbl/Cob(II)alamin	8.5 min	Cob(II)alamin	12 min	–	MMA in conditioned medium ([5]; Controls (group value), after 7 days): 0.122 μmol/mg protein; MMA in conditioned medium ([5]; Controls, after 7 days wash-off period without supplemental cobalamin): 0.145 μmol/mg protein; MMA in conditioned medium ([5]; HFF control fibroblasts, after 7 days): 0.132 μmol/mg protein; MMA in conditioned medium ([5]; NHDF control fibroblasts, after 7 days): 0.103 μmol/mg protein; MMA in conditioned medium ([5]; Wiezel control fibroblasts, after 7 days): 0.132 μmol/mg protein; MMA in conditioned medium ([6]; GM02345B cblC fibroblasts, after 7 days): 0.150 μmol/mg protein; MMA in conditioned medium ([6]; GM02452C cblC fibroblasts, after 7 days): 0.150 μmol/mg protein; MMA in conditioned medium ([6]; GM10011 cblC fibroblasts, after 7 days): 0.041 μmol/mg protein; MMA in conditioned medium ([6]; WG1801 cblC fibroblasts, after 7 days): 0.254 μmol/mg protein; MMA in conditioned medium ([6]; WG2176 cblC fibroblasts, after 7 days): 0.083 μmol/mg protein; MMA in conditioned medium ([6]; WG3354 cblC fibroblasts, after 7 days): 0.148 μmol/mg protein; MMA in conditioned medium ([6]; cblC patients (group value), after 7 days): 0.138 μmol/mg protein; MMA in conditioned medium ([6]; cblC patients, after 7 days wash-off period without supplemental cobalamin): 0.177 μmol/mg protein
